Assay results: EP4652995A1, “ANTIBACTERIAL COMPOSITION, PHARMACEUTICAL AGENT, AND ANTIBACTERIAL METHOD” (priority 2023, dated 2024)

System: vancomycin resistant E.faecium (VRE)
Experiment: In vitro proliferation inhibition of E. faecium (OD600)
Format: cell-based
Conditions: pH 7.5; 10 µg/mL V-161, 1 µg/mL niclosamide, alone or in combination; NaTY medium, 37°C, 13 hours; OD600 (Fig. 2)

## Cc1ccc2[nH]c(-c3ccc(N(C)C)cc3)nc2c1 [Example V-161, N,N-dimethyl-4-(5-methyl-1H-benzo[d]imidazol-2-yl)aniline]
  proliferation of bacteria: not completely inhibited

## O=C(Nc1ccc([N+](=O)[O-])cc1Cl)c1cc(Cl)ccc1O [niclosamide, 5-chloro-2-hydroxy-N-(2-chloro-4-nitrophenyl)benzamide]
  proliferation of bacteria: not completely inhibited
